The source of these data is patent US8129399B2, “Aminopyrimidines useful as kinase inhibitors” (Vertex Pharmaceuticals Incorporated, priority 2005, dated 2012).

Like-named read-outs stand apart in the source and are kept apart here.

For test [1], the target named is Aurora-1 (Aurora B) (Homo sapiens, UniProt Q96GD4). The test can be described thus: Aurora-1 (Aurora B) inhibition assay (radiometric). Type of test: biochemical. Conditions: 800 μM ATP; read-out: Aurora B Ki. On the procedure:
An assay buffer solution was prepared which consisted of 25 mM HEPES (pH 7.5), 10 mM MgCl2, 0.1% BSA and 10% glycerol. […] To 22 μL of the Aurora-B solution, in a 96-well plate, was added 2 μl of a compound stock solution in DMSO and the mixture allowed to equilibrate for 10 minutes at 25° C. The enzyme reaction was initiated by the addition of 16 μl stock [γ-^33P]-ATP solution (˜20 nCi/μL) prepared in assay buffer, to a final assay concentration of 800 μM. The reaction was stopped after 3 hours by the addition of 16 μL 500 mM phosphoric acid and the levels of ^33P incorporation into the peptide substrate were determined by the following method.
A phosphocellulose 96-well plate (Millipore, Cat no. MAPHNOB50) was pre-treated with 100 μL of a 100 mM phosphoric acid prior to the addition of the enzyme reaction mixture (40 μL). The solution was left to soak on to the phosphocellulose membrane for 30 minutes and the plate subsequently washed four times with 200 μL of a 100 mM phosphoric acid. […] Levels of non-enzyme catalyzed background radioactivity were determined by adding 16 μL of the 500 mM phosphoric acid to control wells, containing all assay components (which acts to denature the enzyme), prior to the addition of the [γ-^33P]-ATP solution. Levels of enzyme catalyzed ^33P incorporation were calculated by subtracting mean background counts from those measured at each inhibitor concentration. […] Ki values were calculated from initial rate data by non-linear regression using the Prism software package (Prism 3.0, Graphpad Software, San Diego, Calif.).

For test [2], the target named is T1, Aurora-2 (Aurora A) (Homo sapiens, UniProt O14965).
T1 sequence (O14965 1-403): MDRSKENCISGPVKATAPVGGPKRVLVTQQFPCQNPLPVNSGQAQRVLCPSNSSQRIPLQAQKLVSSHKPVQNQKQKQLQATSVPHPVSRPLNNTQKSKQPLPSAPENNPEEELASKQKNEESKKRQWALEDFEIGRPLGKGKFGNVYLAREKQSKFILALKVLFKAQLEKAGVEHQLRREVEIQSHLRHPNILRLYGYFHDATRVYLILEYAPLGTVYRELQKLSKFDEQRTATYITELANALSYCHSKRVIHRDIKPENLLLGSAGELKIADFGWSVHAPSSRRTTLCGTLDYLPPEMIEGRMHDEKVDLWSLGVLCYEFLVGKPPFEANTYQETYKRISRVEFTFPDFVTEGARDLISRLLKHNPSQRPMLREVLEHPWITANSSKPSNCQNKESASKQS
The test can be described thus: Aurora-2 (Aurora A) inhibition assay, coupled enzyme. Type of test: biochemical. On the procedure: Assays were carried out in a mixture of 100 mM Hepes (pH7.5), 10 mM MgCl2, 1 mM DTT, 25 mM NaCl, 2.5 mM phosphoenolpyruvate, 300 μM NADH, 30 μg/ml pyruvate kinase and 10 μg/ml lactate dehydrogenase. […] Assays were carried out at 30° C. and in the presence of 40 nM Aurora-2.
An assay stock buffer solution was prepared containing all of the reagents listed above, with the exception of Aurora-2 and the test compound of interest. […] The plate was preincubated for 10 minutes at 30° C. and the reaction initiated by addition of 10 μl of Aurora-2. Initial reaction rates were determined with a Molecular Devices SpectraMax Plus plate reader over a 10 minute time course. IC50 and Ki data were calculated from non-linear regression analysis using the Prism software package (GraphPad Prism version 3.0cx for Macintosh, GraphPad Software, San Diego Calif., USA).

In test [3] the test system is Colo205 cells. The test can be described thus: Colo205 cell proliferation, 3H thymidine incorporation. Type of test: cell-based. Conditions: Homo sapiens. On the procedure: Colo205 cells were seeded in 96 well plates and serially diluted compound was added to the wells in duplicate. Control groups included untreated cells, the compound diluent (0.1% DMSO alone) and culture medium without cells.
To measure proliferation, 3 h prior to the end of the experiment 0.5 μCi of 3H thymidine was added to each well. Cells were then harvested and the incorporated radioactivity counted on a Wallac microplate beta-counter. Cell viability was assessed using Promega CellTiter 96AQ to measure MTS conversion. Dose response curves were calculated using either Prism 3.0 (GraphPad) or SoftMax Pro 4.3.1 LS (Molecular Devices) software.

Test [4] has as its target N-terminally truncated (Δ 27) Abl kinase (Homo sapiens, UniProt P00519). The test can be described thus: Abl kinase activity inhibition assay, coupled enzyme. The format is biochemical. On the procedure:
Reactions were carried out in a solution containing 100 mM HEPES (pH 7.5), 10 mM MgCl2, 25 mM NaCl, 300 μM NADH, 1 mM DTT and 3% DMSO. […] Final concentrations of the components of the coupled enzyme system were 2.5 mM phosphoenolpyruvate, 200 μM NADH, 60 μg/ml pyruvate kinase and 20 μg/ml lactate dehydrogenase.
An assay stock buffer solution was prepared containing all of the reagents listed above with the exception of ATP and the test compound of interest. […] Rates of reaction were obtained using a Molecular Devices Spectramax plate reader (Sunnyvale, Calif.) over 10 min at 30° C. The Ki values were determined from the residual rate data as a function of inhibitor concentration using nonlinear regression (Prism 3.0, Graphpad Software, San Diego, Calif.).

In test [5] the target is Arg (Abl-2) (Homo sapiens, UniProt P42684). As to the kind of experiment: Arg (Abl-2) inhibition screen. The format is biochemical. Conditions: Table 5; ATP at or close to Km. The source says: (§1) Compound(s) were screened for their ability to inhibit Arg (Abl-2), FGFR1, MLK1, Tie2, and TrkA using screening methods known to one of ordinary skill in the art. All of the above enzymes were screened with ATP concentrations at or close to the Km for ATP.

The target of test [6] is FGFR1 (Homo sapiens, UniProt P11362). The test can be described thus: FGFR1 inhibition screen. The format is biochemical. Conditions: Table 5; ATP at or close to Km.
Description: as §1

The mark [7] stands for this setting: COLO 205, read-out: Colo205 inh 3H-Thy incorporation after 96 hours IC50 (uM).
Where [8] appears, read: 400 μM ATP, 40 nM Aurora-2, read-out: Aurora A Ki.
Where [9] appears, read: COLO 205, read-out: Colo205 inh 3H-Thy incorporation after 72 hours IC50 (uM).

Sequence of Aurora-1 (Aurora B) (Q96GD4 whole entry): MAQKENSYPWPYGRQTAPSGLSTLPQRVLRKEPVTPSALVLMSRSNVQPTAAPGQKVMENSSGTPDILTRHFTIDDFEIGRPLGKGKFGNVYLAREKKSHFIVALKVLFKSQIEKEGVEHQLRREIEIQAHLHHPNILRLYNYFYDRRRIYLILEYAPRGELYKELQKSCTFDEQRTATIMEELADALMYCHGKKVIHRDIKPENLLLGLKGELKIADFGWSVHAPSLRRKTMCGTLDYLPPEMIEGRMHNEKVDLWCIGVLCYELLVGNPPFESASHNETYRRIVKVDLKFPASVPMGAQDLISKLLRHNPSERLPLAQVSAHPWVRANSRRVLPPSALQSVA
Sequence of N-terminally truncated (Δ 27) Abl kinase (P00519 28-1130 limits assumed, stated change not applied): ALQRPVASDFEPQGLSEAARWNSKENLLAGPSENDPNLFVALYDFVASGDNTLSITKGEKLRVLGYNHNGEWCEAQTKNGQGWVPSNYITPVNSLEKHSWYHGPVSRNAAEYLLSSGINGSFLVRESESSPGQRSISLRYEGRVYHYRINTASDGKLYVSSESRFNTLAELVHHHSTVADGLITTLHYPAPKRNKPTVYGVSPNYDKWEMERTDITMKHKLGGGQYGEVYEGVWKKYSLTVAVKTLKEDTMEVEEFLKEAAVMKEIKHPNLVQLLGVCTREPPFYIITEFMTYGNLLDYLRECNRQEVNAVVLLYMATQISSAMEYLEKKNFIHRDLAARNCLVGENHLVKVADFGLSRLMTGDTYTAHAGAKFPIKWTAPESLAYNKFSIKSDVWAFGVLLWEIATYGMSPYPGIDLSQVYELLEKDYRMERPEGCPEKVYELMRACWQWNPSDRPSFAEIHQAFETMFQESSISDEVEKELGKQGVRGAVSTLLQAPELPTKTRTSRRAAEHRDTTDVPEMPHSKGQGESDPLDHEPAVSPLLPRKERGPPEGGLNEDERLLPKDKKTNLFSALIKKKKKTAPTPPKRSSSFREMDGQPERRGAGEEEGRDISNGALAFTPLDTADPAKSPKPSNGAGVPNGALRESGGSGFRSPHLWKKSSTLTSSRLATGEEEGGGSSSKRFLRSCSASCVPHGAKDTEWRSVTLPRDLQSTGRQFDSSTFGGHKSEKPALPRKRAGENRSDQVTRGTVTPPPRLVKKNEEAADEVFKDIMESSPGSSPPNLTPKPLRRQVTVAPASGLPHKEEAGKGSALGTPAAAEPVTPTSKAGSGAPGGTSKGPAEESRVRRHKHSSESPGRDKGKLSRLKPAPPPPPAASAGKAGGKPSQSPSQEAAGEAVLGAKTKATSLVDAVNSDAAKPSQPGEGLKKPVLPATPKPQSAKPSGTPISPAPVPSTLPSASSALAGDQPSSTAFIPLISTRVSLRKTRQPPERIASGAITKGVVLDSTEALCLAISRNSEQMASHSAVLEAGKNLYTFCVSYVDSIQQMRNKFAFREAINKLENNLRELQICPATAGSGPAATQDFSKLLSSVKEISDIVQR
Sequence of FGFR1 (P11362 22-822, species assumed): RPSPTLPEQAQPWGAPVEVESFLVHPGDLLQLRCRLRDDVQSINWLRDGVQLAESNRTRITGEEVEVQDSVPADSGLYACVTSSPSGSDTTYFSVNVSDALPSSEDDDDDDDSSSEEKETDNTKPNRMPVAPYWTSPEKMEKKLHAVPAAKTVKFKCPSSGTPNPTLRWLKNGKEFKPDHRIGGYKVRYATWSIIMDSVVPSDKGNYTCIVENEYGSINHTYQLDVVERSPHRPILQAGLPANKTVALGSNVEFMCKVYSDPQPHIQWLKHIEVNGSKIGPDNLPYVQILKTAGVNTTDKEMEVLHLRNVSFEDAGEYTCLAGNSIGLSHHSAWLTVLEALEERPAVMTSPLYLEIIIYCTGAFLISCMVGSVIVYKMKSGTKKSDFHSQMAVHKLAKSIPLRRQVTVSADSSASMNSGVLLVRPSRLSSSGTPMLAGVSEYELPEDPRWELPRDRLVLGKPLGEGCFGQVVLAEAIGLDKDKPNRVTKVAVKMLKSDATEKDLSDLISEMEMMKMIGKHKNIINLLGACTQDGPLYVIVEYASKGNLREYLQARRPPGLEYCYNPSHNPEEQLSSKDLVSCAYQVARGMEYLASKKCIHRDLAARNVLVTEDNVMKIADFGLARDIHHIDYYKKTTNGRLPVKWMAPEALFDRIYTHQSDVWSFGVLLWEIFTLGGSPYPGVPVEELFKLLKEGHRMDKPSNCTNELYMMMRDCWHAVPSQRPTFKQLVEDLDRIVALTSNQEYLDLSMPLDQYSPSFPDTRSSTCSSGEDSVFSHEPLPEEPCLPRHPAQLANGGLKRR
Sequence of Arg (Abl-2) (P42684 whole entry, species assumed): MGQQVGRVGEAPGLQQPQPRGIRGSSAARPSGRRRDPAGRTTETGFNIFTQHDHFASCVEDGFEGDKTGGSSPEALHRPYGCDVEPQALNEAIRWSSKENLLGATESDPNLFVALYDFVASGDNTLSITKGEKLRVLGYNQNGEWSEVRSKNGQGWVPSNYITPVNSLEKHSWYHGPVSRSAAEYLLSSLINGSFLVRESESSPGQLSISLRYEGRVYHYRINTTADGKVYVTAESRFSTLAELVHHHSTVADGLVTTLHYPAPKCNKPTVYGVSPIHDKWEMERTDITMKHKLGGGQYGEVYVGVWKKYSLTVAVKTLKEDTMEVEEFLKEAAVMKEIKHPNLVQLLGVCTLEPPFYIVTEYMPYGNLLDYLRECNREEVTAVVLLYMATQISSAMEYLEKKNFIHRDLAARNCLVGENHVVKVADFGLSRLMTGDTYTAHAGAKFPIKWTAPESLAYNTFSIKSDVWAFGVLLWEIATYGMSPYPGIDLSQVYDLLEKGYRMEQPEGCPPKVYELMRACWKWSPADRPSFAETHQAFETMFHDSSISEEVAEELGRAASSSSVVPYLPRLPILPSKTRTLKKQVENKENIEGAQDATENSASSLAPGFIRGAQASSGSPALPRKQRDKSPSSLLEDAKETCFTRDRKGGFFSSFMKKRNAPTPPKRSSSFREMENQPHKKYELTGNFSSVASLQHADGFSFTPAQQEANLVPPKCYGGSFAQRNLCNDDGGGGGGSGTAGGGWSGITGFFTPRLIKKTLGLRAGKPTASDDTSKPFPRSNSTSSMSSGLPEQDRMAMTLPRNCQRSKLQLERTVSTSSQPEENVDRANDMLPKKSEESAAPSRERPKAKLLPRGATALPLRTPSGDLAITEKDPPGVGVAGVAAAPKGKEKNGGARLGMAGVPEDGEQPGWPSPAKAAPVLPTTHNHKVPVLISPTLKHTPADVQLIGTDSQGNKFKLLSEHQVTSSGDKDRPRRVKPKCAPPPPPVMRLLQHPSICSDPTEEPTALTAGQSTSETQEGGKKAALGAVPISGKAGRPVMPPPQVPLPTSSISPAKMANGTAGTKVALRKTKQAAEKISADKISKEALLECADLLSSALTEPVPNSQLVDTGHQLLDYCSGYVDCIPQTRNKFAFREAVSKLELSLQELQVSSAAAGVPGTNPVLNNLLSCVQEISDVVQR

Take `CCC(=O)Nc1ccc(Sc2nc(Nc3cc(C)n[nH]3)cc(N3CC(O)(CC(C)(C)C)C3)n2)cc1` [Compound I-1]: the inhibition constant (Ki) amounted to 7 nM in test [1] and 0.4 nM in test [2]. Also, in test [3] (setting [7]), the IC50 was 0.047 µM.

Regarding `CCC(=O)Nc1ccc(Sc2nc(Nc3cc(C)n[nH]3)cc(N3CC(O)(CC)C3)n2)cc1` [Compound I-4], the Ki in test [1] came to 15 nM; in test [2] (setting [8]), 1.7 nM. The IC50 in test [3] (COLO 205, Colo205 cells, 96 hours, read-out: Colo205 inh 3H-Thy incorporation after 96 hours IC50) came to 0.092 µM.

Take `Cc1cc(Nc2cc(N3CC(F)(C4CC4)C3)nc(Sc3ccc(NC(=O)C4(C(F)(F)F)CC4)cc3)n2)[nH]n1` [Compound I-15]: the inhibitory constant (Ki) worked out at 9.6 nM in test [1], 57 nM in test [4] and 0.4 nM in test [2] (setting [8]). In test [3] (setting [9]), the IC50 came out at 0.026 µM.

On to `CCC(=O)Nc1ccc(Sc2nc(Nc3cc(C)[nH]n3)cc(N3CC(F)(C4CC4)C3)n2)cc1` [Compound I-16], for which the Ki in test [1] came to 24 nM; in test [4], 170 nM; in test [2] (setting [8]) it was 1 nM. The IC50 in test [3] (setting [9]) is 0.051 µM.

Regarding `Cc1cc(Nc2cc(N3CC(F)(C4CC4)C3)nc(Sc3ccc(NC(=O)CCC(F)(F)F)cc3)n2)[nH]n1` [Compound I-17], the IC50 in test [5] worked out at 210 nM; in test [6], 88 nM; in test [3] (setting [9]) it was 0.026 µM; in test [3] (setting [7]) it was 0.019 µM. For the same compound, the Ki in test [1] was 12 nM; in test [4] it was 22 nM; in test [2] (setting [8]), 0.62 nM.

One may read the Ki as a measure of affinity in units of concentration, obtained from inhibition or displacement.
